Biological target: T1, human PPAR α (Homo sapiens, UniProt Q07869)
T1 construct: expressed in transfected cells; host or cells: HepG2 (ATCC HB-8065) or 293T cells (ATCC CRL-1573)
T1 sequence (Q07869 239-466 limits assumed): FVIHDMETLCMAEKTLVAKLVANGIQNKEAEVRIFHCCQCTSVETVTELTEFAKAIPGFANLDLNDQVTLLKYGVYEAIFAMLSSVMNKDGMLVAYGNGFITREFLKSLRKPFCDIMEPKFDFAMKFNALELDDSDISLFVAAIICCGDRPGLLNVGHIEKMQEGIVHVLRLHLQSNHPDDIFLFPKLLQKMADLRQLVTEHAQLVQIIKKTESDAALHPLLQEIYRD
Experiment: Exogeneous PPAR α agonist assay (GAL4 DNA binding domain/PPAR α ligand binding domain, luciferase) in 293T cells
Format: cell-based
Parameters: scale not given here
Details: 25 μM compound, 48 hours, luciferase activity increase relative to the control
Protocol: Step 1) Exogeneous PPAR α Agonist Assay
Cross-activation assay of the compounds of Examples 1 to 134 against human PPAR α was carried out using a DNA construct of PPAR α including its ligand binding domain and GAL4 DNA binding domain (Sher et al., Biochemistry 32, 5598-5604, 1993) to analyze whether any of the compounds binds to the ligand binding domain of PPAR α expressed by the construct to affect the PPAR α activity. When the GAL4 DNA binding domainm which is fused with PPAR α ligand binding domain, binds to UAS (upstream activation sequence) of firefly-luciferase, the luciferase is expressed. Therefore, the effect of each of the compounds of Examples on PPAR α activation can be evaluated by analyzing the activation of luciferase.
Specifically, 2×10^4 of HepG2 (ATCC HB-8065) or 293T cells (ATCC CRL-1573) were aliquotted into each well of a 96-well plate and cultured for overnight at 37° C. in a CO2 incubator (culture condition: DMEM, 10% FBS and 1% antibiotics).
The transformation of PPAR α DNA was traced as follows. First, a mixture of the following ingredients in amounts per well; Solution A (Promega) containing 50 ng of full length human PPAR α DNA, 50 ng of firefly-luciferase construct, 5 ng of Renilla-luciferase construct, 1.0 μl of PLUS™ reagent, and 8.3 μl of a serum-free medium containing no antibiotics; was prepared and kept at room temperature for 15 min. Solution B, which contained 0.5 μl of Lipofectamine™ reagent and 9.5 μl of serum-free medium without antibiotics per well, and Solution C, which contained 50 μl of serum-free medium per well), were prepared. Solutions A, B and C were mixed together to prepare lipofectamin-DNA complex, and the mixture was kept at room temperature for 15 min. Single layer of cells on each well of a 96-well plate were washed with serum-free DMEM, 70 μl of lipofectamine-DNA complex prepared above was added thereto, the plate was incubated at 37° C. in a 5% CO2 incubator for 3 hours to transform the cells, and […] of a diluted solution of each of the compounds of Examples 1 to 134 per well was added to each well to a final concentration 25 μM, and incubated at 37° C. in a CO2 incubator for 48 hours. Then, the medium was removed, 50 μl of passive lysis buffer (Promega) was added thereto, and the plate was shook at room temperature for 20 min to lysis cells. 40 μl of Luciferase Assay reagent of Dual Luciferase Kit […] per 20 μl of cell lysis buffer was added to the plate, followed by reacting at 20° C. for 8 seconds, and 40 μl of Stop & Glo reagent (Promega) as a stop solution was added thereto to quench the reaction. The luminescence intensities of F-luciferase and R-luciferase were measured with MicroLumat Plus (Berthord Technology).

Row | SMILES | Activity at 25 μM Step 1 293T cell
1 | Cc1oc(-c2ccc(C(F)(F)F)cc2)nc1COc1cccc(CN(CC(=O)O)S(=O)(=O)N(C)c2ccc(Cl)cc2)c1 [Example 20, [N—[[N-methyl-N-(4-chlorophenyl)]amino]sulfonyl-N-[3-[[2-(4-trifluoromethylphenyl)-5-methyloxazol-4-yl]methoxy]benzyl]amino]acetic acid] | 2
2 | Cc1oc(-c2ccccc2)nc1CCOc1cccc(CN(CC(=O)O)S(=O)(=O)N2CCCc3ccccc32)c1 [Example 94, [N-(1,2,3,4-tetrahydroquinolinyl)sulfonyl-N-[3-[2-(2-phenyl-5-methyloxazol-4-yl)ethoxy]benzyl]amino]acetic acid] | 2
3 | Cc1ccc(-c2nc(CCOc3cccc(CN(CC(=O)O)S(=O)(=O)N4CCOCC4)c3)c(C)o2)cc1 [Example 86, [N-(morpholinyl)sulfonyl-N-[3-[2-[2-(4-methylphenyl)-5-methyloxazol-4-yl]ethoxy]benzyl]amino]acetic acid] | 2
4 | Cc1oc(-c2ccccc2)nc1COc1cccc(CN(CC(=O)O)S(=O)(=O)N2CCc3ccccc32)c1 [Example 30, [N-(indolinyl)sulfonyl-N-[3-[(2-phenyl-5-methyloxazol-4-yl)methoxy]benzyl]amino]acetic acid] | 2
5 | Cc1ccc(-c2nc(COc3ccc(CN(CC(=O)O)S(=O)(=O)N4CCCC4)cc3)c(C)o2)cc1 [Example 42, [N-(pyrrolidinyl)sulfonyl-N-[4-[[2-(4-methylphenyl)-5-methyloxazol-4-yl]methoxy]benzyl]amino]acetic acid] | 3
6 | Cc1ccc(-c2nc(CCOc3ccc(CN(CC(=O)O)S(=O)(=O)N(C)C)cc3)c(C)o2)cc1 [Example 99, [N—(N,N-dimethylamino)sulfonyl-N-[4-[2-[2-(4-methylphenyl)-5-methyloxazol-4-yl]ethoxy]benzyl]amino]acetic acid] | 2
7 | Cc1ccc(-c2nc(COc3ccc(CN(CC(=O)O)S(=O)(=O)N4CCN(C)CC4)cc3)c(C)o2)cc1 [Example 43, [N-(4-methyl-1-piperazinyl)sulfonyl-N-[4-[[2-(4-methylphenyl)-5-methyloxazol-4-yl]methoxy]benzyl]amino]acetic acid] | 2
8 | Cc1oc(-c2ccccc2)nc1COc1ccc(CN(CC(=O)O)S(=O)(=O)N(C)C)cc1 [Example 38, [N—(N,N-dimethylamino)sulfonyl-N-[4-[(2-phenyl-5-methyloxazol-4-yl)methoxy]benzyl]amino]acetic acid] | 2
9 | Cc1nc(-c2ccc(C(F)(F)F)cc2)oc1COc1cccc(CN(CC(=O)O)S(=O)(=O)N(C)C)c1 [Example 13, [N—(N,N-dimethylamino)sulfonyl-N-[3-[[2-(4-trifluoromethylphenyl)-4-methyloxazol-5-yl]methoxy]benzyl]amino]acetic acid] | 2
10 | Cc1ccc(-c2nc(COc3ccc(CN(CC(=O)O)S(=O)(=O)N4CCc5ccccc54)cc3)c(C)o2)cc1 [Example 54, [N-(indolinyl)sulfonyl-N-[4-[[2-(4-methylphenyl)-5-methyloxazol-4-yl]methoxy]benzyl]amino]acetic acid] | 2
11 | Cc1ccc(-c2nc(COc3ccc(CN(CC(=O)O)S(=O)(=O)N4CCOCC4)cc3)c(C)o2)cc1 [Example 44, [N-(morpholinyl)sulfonyl-N-[4-[[2-(4-methylphenyl)-5-methyloxazol-4-yl]methoxy]benzyl]amino]acetic acid] | 3
12 | Cc1oc(-c2ccc(C(F)(F)F)cc2)nc1COc1ccc(CN(CC(=O)O)S(=O)(=O)N2CCc3ccccc32)cc1 [Example 55, [N-(indolinyl)sulfonyl-N-[4-[[2-(4-trifluoromethylphenyl)-5-methyloxazol-4-yl]methoxy]benzyl]amino]acetic acid] | 2
13 | Cc1oc(-c2ccc(C(F)(F)F)cc2)nc1COc1ccc(CN(CC(=O)O)S(=O)(=O)N(C)c2ccccc2)cc1 [Example 47, [N—[(N-methyl-N-phenyl)amino]sulfonyl-N-[4-[[2-(4-trifluoromethylphenyl)-5-methyloxazol-4-yl]methoxy]benzyl]amino]acetic acid] | 2
14 | Cc1oc(-c2ccc(C(F)(F)F)cc2)nc1COc1cccc(CN(CC(=O)O)S(=O)(=O)N2CCc3ccccc32)c1 [Example 32, [N-(indolinyl)sulfonyl-N-[3-[[2-(4-trifluoromethylphenyl)-5-methyloxazol-4-yl]methoxy]benzyl]amino]acetic acid] | 2
15 | Cc1oc(-c2ccc(C(F)(F)F)cc2)nc1COc1ccc(CN(CC(=O)O)S(=O)(=O)N2CCCc3ccccc32)cc1 [Example 59, [N-(1,2,3,4-tetrahydroquinolinyl)sulfonyl-N-[4-[[2-(4-trifluoromethylphenyl)-5-methyloxazol-4-yl]methoxy]benzyl]amino]acetic acid] | 3
16 | Cc1ccc(-c2nc(COc3ccc(CN(CC(=O)O)S(=O)(=O)N(C)c4ccc(Cl)cc4)cc3)c(C)o2)cc1 [Example 50, [N—[[N-methyl-N-(4-chlorophenyl)]amino]sulfonyl-N-[4-[[2-(4-methylphenyl)-5-methyloxazol-4-yl]methoxy]benzyl]amino]acetic acid] | 2

Now from value to compound:

Row | Activity at 25 μM Step 1 293T cell | SMILES
17 | 2 | Cc1oc(-c2ccc(C(F)(F)F)cc2)nc1CCOc1ccc(CN(CC(=O)O)S(=O)(=O)N(C)C)cc1 [Example 103, [N—(N,N-dimethylamino)sulfonyl-N-[4-[2-[2-(4-trifluoromethylphenyl)-5-methyloxazol-4-yl]ethoxy]benzyl]amino]acetic acid]
18 | 2 | Cc1oc(-c2cccs2)nc1CCOc1ccc(CN(CC(=O)O)S(=O)(=O)N2CCc3ccccc32)cc1 [Example 119, [N-(indolinyl)sulfonyl-N-[4-[2-[2-(thiophen-2-yl)-5-methyloxazol-4-yl]ethoxy]benzyl]amino]acetic acid]
19 | 2 | Cc1oc(-c2ccc(C(F)(F)F)cc2)nc1CCOc1ccc(CN(CC(=O)O)S(=O)(=O)N2CCc3ccccc32)cc1 [Example 118, [N-(indolinyl)sulfonyl-N-[4-[2-[2-(4-trifluoromethylphenyl)-5-methyloxazol-4-yl]ethoxy]benzyl]amino]acetic acid]
20 | 2 | Cc1ccc(-c2nc(CCOc3ccc(CN(CC(=O)O)S(=O)(=O)N(C)c4ccccc4)cc3)c(C)o2)cc1 [Example 106, [N—[(N-methyl-N-phenyl)amino]sulfonyl-N-[4-[2-[2-(4-methylphenyl)-5-methyloxazol-4-yl]ethoxy]benzyl]amino]acetic acid]
21 | 2 | Cc1oc(-c2cccs2)nc1CCOc1ccc(CN(CC(=O)O)S(=O)(=O)N(C)c2ccc(Cl)cc2)cc1 [Example 115, [N—[[N-methyl-N-(4-chlorophenyl)]amino]sulfonyl-N-[4-[2-[2-(thiophen-2-yl)-5-methyloxazol-4-yl]ethoxy]benzyl]amino]acetic acid]
22 | 2 | Cc1oc(-c2ccccc2)nc1CCOc1ccc(CN(CC(=O)O)S(=O)(=O)N(C)c2ccccc2)cc1 [Example 105, [N—[(N-methyl-N-phenyl)amino]sulfonyl-N-[4-[2-(2-phenyl-5-methyloxazol-4-yl)ethoxy]benzyl]amino]acetic acid]
23 | 2 | Cc1ccc(-c2nc(CCOc3ccc(CN(CC(=O)O)S(=O)(=O)N(C)c4ccc(Cl)cc4)cc3)c(C)o2)cc1 [Example 110, [N—[[N-methyl-N-(4-chlorophenyl)]amino]sulfonyl-N-[4-[2-[2-(4-methylphenyl)-5-methyloxazol-4-yl]ethoxy]benzyl]amino]acetic acid]
24 | 2 | Cc1oc(-c2cccs2)nc1CCOc1ccc(CN(CC(=O)O)S(=O)(=O)N(C)c2ccccc2)cc1 [Example 108]
